Results taken from US9925235B2, “Tilapia piscidins for use in enhancement of wound healing” (Academia Sinica, priority 2015, dated 2018).
Peptide text beside a SMILES is read from it.

How the values were obtained:
[1] = In vivo toxicity of TP3, intramuscular injection, blood biochemistry; settings: mice, i.m. 2 mg/mouse
Method: To determine the toxicity of TP3, TP3 was dissolved in phosphate-buffered saline (PBS; pH 7.4) and administered as intramuscular bolus injections in the left thigh (2 mg/mouse). […] To study the effect of treatment on biochemistry, mice (n=6 in each group) were treated with PBS (control). Blood samples (0.2 ml) were collected day 1, 3 and 6 after the final injection of TP3, and used to determine the serum levels of glutamic oxaloacetic transaminase (GOT), glutamic pyruvic transaminase (GPT), blood urea nitrogen (BUN), creatinine (CRE), total glucose (GLU), and creatine phosphokinase (CPK).

[2] = system: MRSA; settings: 24 h
[3] = system: MRSA; assay: Mouse model of MRSA sepsis, TP3; assay type: in vivo, Balb/c mice; settings: for Mean ± SD count, Blood / Mean ± SD count, Liver / Mean ± SD count, Mesenteric lymph nodes / Mean ± SD count, Peritoneum / Mean ± SD count, Spleen: 48 h after injection; for survival rate: 8 days after MRSA infection, i.p. 10 min after MRSA, TP3 0.005 mg/g, vancomycin and methicillin 0.01 mg/g; for % lethality: monitored for 2 day after injection, MRSA 1 × 10^6 CFU i.p.
Method: (§1) Female Balb/c mice (6-8 weeks old) were injected intraperitoneally with 10^6 CFU MRSA per mouse. Ten minutes after MRSA injection, mice were injected intraperitoneally with vancomycin (0.01 mg/g mouse body weight), methicilin (0.01 mg/g mouse body weight), or TP3 (0.005 mg/g mouse body weight). In a second set of experiments, mice were given intraperitoneal injections of TP3 (0.005 mg/g mouse body weight) at 10, 60, 120, or 180 min after MRSA injection. The survival rate and status were recorded every 24 h for up to 192 h. To examine bacterial dissemination, mice were sacrificed at 48 h after injection with antibiotics or TP3, and the bacterial numbers in blood, peritoneum, spleen, liver, and mesenteric lymph nodes were recorded. Colony counts from the diluted bacterial solutions were expressed relative to those at the start of treatment. These experiments consisted of four groups, and each group contained 5 mice.

[4] = system: MRSA; assay: Mouse wound healing model, wound closure and microbial load, TP3; assay type: in vivo, Balb/c mice
Method: Female Balb/c mice (6-8 weeks old) were used for wound healing experiments. All mice were housed individually to prevent fighting and further damage to the wounds, and they were provided with food and water ad libitum. Mice were maintained on a 12 h light: dark cycle at room temperature, and acclimatized to the environment for at least a week before use in experiments. All researchers wore caps, sterile gloves, gowns, and shoe covers when handling mice. Hair was removed from the back of the mice by shaving, and a full thickness wound (1 cm in diameter) was then created in the exposed region. Each wound was inoculated with 50 μl of broth mix containing 10^6 cfu (colony forming units) of S. aureus. At 5 min after inoculation, 50 μl TP3 (2 mg/ml) in a total volume of 0.1 ml were applied. Thirty minutes after treatment, wounds were covered with Tegaderm (3M, St. Paul, Minn.) to maintain uniformity, and to prevent the mice from removing the treatments. Based on initial experiments, we examined the wounds at 0, 3, 5 and 19 days post-injury, so as not to disturb the infection. Such examinations captured the transitions from inflammatory to regenerative, and regenerative to resolving phases of wound healing. Animals were subsequently euthanized by CO2 inhalation and the wounds assessed. Four individuals in each group were examined at each time point for each experiment. Each wound was measured and then removed from the animal, with unwounded skin taken from the contralateral dorsum as a control. Each biopsy was bisected with three sections being used for tensiometry and histology, and two sections for quantitative determination of microbial load. Wound healing studies were repeated in triplicate.
Tracings were taken immediately after injury. For uncontaminated wounds, wound size was determined every second day. For contaminated wounds, mice were euthanized at days 3, 5, 19 and tracings of the wound edges were made. Wound areas were determined using the Macintosh Adobe Photoshop program, Histogram Analysis. The percentage of wound contraction was calculated as follows: % Wound contraction=(A0−At)/A0×100, where A0 is the original wound area, and At is the area of wound at the time of biopsy on every two days, accordingly.
Multidrug-resistant strains of Staphylococcus aureus commonly associated with human wound infections were selected to generate a polymicrobial solution. The MRSA strain is a clinical isolate from stool obtained from Taipei City Hospital (Heping Fuyou branch). The initial inoculum was prepared by culturing aerobic bacteria in Tryptic Soy Broth (TSB) overnight at 37° C. Broths were subsequently centrifuged at 1000 rpm for 15 min, and resuspended in TSB with 15% glycerol, or chopped meat extract with 15% glycerol (for aerobic bacteria). The concentration was adjusted to 10^6 cfu/50 μl, and stored at −80° C. Prior to wound application, […]

[5] = system: MRSA; assay: Mouse model of MRSA sepsis, TP4; assay type: in vivo, Balb/c mice; settings: for Mean ± SD count, Blood / Mean ± SD count, Liver / Mean ± SD count, Mesenteric lymph nodes / Mean ± SD count, Peritoneum / Mean ± SD count, Spleen: 48 hours after the last treatment; for survival rate: 8 days after MRSA infection, i.p. 10 min after MRSA, TP4 0.005 mg/g, vancomycin and methicillin 0.01 mg/g; for % lethality: monitored for 2 day after injection, MRSA 10^6 CFU i.p.
Method: as §1, with “weight), methicillin” for “weight), methicilin”, “or TP4” for “or TP3”, “of TP4” for “of TP3”, “injection. Survival” for “injection. The survival”, “or TP4,” for “or TP3,”, “contained 10” for “contained 5”
Infected mice were untreated, or treated with TP4, methicillin, or vancomycin via i.p. injection. Bacterial numbers in blood, peritoneum, spleen, liver, and mesenteric lymph nodes were subsequently recorded. Colony counts from the diluted bacterial solutions are expressed relative to those at the start of treatment. Each value represents the mean value from three determinations±standard deviation (SD).

[6] = system: MRSA; assay: Histology and IHC of wound tissue, TP3; assay type: in vivo, Balb/c mice; settings: wounds
Method: Skin tissues were removed and fixed as previously described. In brief, the cryosections were fixed with 4% formaldehyde, and the tissue samples were stained with hematoxylin/eosin, Giemsa, or Gram stain. IHC was analyzed by three independent investigators. Images were taken using a BX-51 microscope (Olympus, Japan).

| SMILES | Mean ± SD count, Blood [3] | Mean ± SD count, Liver [3] | Mean ± SD count, Mesenteric lymph nodes [3] | Mean ± SD count, Peritoneum [3] | Mean ± SD count, Spleen [3] | survival rate [3] | % lethality [3] | Bacterial Count ([4]; day 0) | Bacterial Count ([4]; day 5) | Mean ± SD count, Blood [5] | Mean ± SD count, Liver [5] | Mean ± SD count, Mesenteric lymph nodes [5] | Mean ± SD count, Peritoneum [5] | Mean ± SD count, Spleen [5] | survival rate [5] | % lethality [5] | other results |
| --- | --- | --- | --- | --- | --- | --- | --- | --- | --- | --- | --- | --- | --- | --- | --- | --- | --- |
| CC[C@H](C)[C@H](NC(=O)[C@H](CC(C)C)NC(=O)[C@H](CO)NC(=O)[C@H](Cc1c[nH]cn1)NC(=O)[C@@H](NC(=O)[C@H](Cc1c[nH]cn1)NC(=O)[C@H](CCCCN)NC(=O)CNC(=O)[C@@H](NC(=O)[C@H](CO)NC(=O)[C@H](Cc1ccccc1)NC(=O)[C@H](CC(C)C)NC(=O)CNC(=O)CNC(=O)[C@@H](NC(=O)[C@@H](NC(=O)[C@H](Cc1c[nH]cn1)NC(=O)[C@H](Cc1c[nH]cn1)NC(=O)[C@@H](NC(=O)[C@@H](N)Cc1ccccc1)[C@@H](C)CC)[C@@H](C)CC)[C@@H](C)CC)C(C)C)[C@@H](C)CC)C(=O)N[C@@H](Cc1c[nH]cn1)C(=O)NCC(=O)N[C@@H](Cc1c[nH]cn1)C(=O)O [TP3, Tilapia piscidin 3] (H-FIHHIIGGLFSVGKHIHSLIHGH-OH) |  |  |  |  |  |  |  |  |  |  |  |  |  |  |  |  | BUN ([1]; day 1): 15.2 ± 2.4^A mg/dl; CPK ([1]; day 1): 114 ± 21.9^A U/l; GLU ([1]; day 1): 258.6 ± 28.2^AB mg/dl; GOT ([1]; day 1): 122.6 ± 25.7^C U/l; GPT ([1]; day 1): 71.3 ± 8.6^C U/l; BUN ([1]; day 3): 17.4 ± 2.3^A mg/dl; CPK ([1]; day 3): 88.3 ± 5.8^B U/l; GLU ([1]; day 3): 219.8 ± 8.2^A mg/dl; GOT ([1]; day 3): 47.3 ± 5.9^A U/l; GPT ([1]; day 3): 36.2 ± 2.7^AB U/l; BUN ([1]; day 6): 20.2 ± 1.8^AB mg/dl; CPK ([1]; day 6): 129 ± 15.3^AB U/l; GLU ([1]; day 6): 290.8 ± 53.5^B mg/dl; GOT ([1]; day 6): 46 ± 8.08^A U/l; GPT ([1]; day 6): 35 ± 5.9^AB U/l; minimal inhibitory concentration (MIC) [2]: > 3.9 µg/mL |
| COc1cccc(OC)c1C(=O)N[C@@H]1C(=O)N2[C@@H]1SC(C)(C)[C@@H]2C(=O)O [methicillin] | 5.8 × 10^7 ± 1.7 × 10^7B CFU/ml | 3.7 × 10^8 ± 8.1 × 10^7B CFU/ml | 6.4 × 10^7 ± 5.3 × 10^7B CFU/ml | 4.9 × 10^9 ± 2.2 × 10^9B CFU/ml | 9.5 × 10^8 ± 1.9 × 10^8B CFU/ml | 0% | 20^B % | 5.2 × 10^4 CFU/10 μl | Fatal | 4.1 × 10^7 ± 1.3 × 10^7B CFU/mL | 2.7 × 10^8 ± 3.3 × 10^8B CFU/mL | 4.1 × 10^7 ± 3 × 10^7C CFU/mL | 2.3 × 10^9 ± 2 × 10^9B CFU/mL | 1.5 × 10^8 ± 2.1 × 10^7B CFU/mL | 0% | 20^B % |  |
| CN[C@H](CC(C)C)C(=O)N[C@H]1C(=O)N[C@@H](CC(N)=O)C(=O)N[C@H]2C(=O)N[C@H]3C(=O)N[C@H](C(=O)N[C@H](C(=O)O)c4cc(O)cc(O)c4-c4cc3ccc4O)[C@H](O)c3ccc(c(Cl)c3)Oc3cc2cc(c3O[C@@H]2O[C@H](CO)[C@@H](O)[C@H](O)[C@H]2O[C@H]2C[C@](C)(N)[C@H](O)[C@H](C)O2)Oc2ccc(cc2Cl)[C@H]1O [vancomycin] | 8 × 10^3 ± 1.3 × 10^5B CFU/ml | 1.7 × 10^8 ± 3.8 × 10^7B CFU/ml | 2 × 10^8 ± 4.4 × 10^6A CFU/ml | 2.7 × 10^9 ± 1.5 × 10^9A CFU/ml | 1.8 × 10^3 ± 8.4 × 10^7B CFU/ml | 80% | 0^A % | 4.9 × 10^4 CFU/10 μl | 2.6 × 10^3 CFU/10 μl | 8 × 10^4 ± 1.1 × 10^4B CFU/mL | 1.3 × 10^7 ± 1.8 × 10^3B CFU/mL | 1 × 10^7 ± 4 × 10^4B CFU/mL | 1.5 × 10^6 ± 1 × 10^3A CFU/mL | 1.4 × 10^7 ± 1.1 × 10^4B CFU/mL | 80% | 10^AB % | Bacterial Count ([4]; day 3): 3 × 10^5 CFU/10 μl; Bacterial Count ([4]; day 19): 42 CFU/10 μl; overall epidermal maturation compared to the TP3 group [6]: displayed impairment in overall epidermal maturation |
